Measured values from ChEMBL document CHEMBL6109122 (J Med Chem, 2025).
Active and inactive are the calls of the source. The rule behind the calls is not given here.

Key:
[1] = biological target: Non-receptor tyrosine-protein kinase TYK2 (Homo sapiens, UniProt P29597); assay: Displacement of fluorophore-labeled probe from TYK2 JH2 domain (unknown origin) by HTRF assay
[2] = biological target: T1, Protein cereblon/Non-receptor tyrosine-protein kinase TYK2 (Homo sapiens, UniProt P29597+Q96SW2); assay: PROTAC activity at CRBN/TYK2 in human Jurkat cells assessed as induction of degradation of TYK2 at 10 nM preincubated with cycloheximide for 2 hrs followed by compound addition and measured after 10 hrs by Western blot analysis; format: cell-based
T1 sequence (P29597 whole entry, looked up, the tested form may be a part): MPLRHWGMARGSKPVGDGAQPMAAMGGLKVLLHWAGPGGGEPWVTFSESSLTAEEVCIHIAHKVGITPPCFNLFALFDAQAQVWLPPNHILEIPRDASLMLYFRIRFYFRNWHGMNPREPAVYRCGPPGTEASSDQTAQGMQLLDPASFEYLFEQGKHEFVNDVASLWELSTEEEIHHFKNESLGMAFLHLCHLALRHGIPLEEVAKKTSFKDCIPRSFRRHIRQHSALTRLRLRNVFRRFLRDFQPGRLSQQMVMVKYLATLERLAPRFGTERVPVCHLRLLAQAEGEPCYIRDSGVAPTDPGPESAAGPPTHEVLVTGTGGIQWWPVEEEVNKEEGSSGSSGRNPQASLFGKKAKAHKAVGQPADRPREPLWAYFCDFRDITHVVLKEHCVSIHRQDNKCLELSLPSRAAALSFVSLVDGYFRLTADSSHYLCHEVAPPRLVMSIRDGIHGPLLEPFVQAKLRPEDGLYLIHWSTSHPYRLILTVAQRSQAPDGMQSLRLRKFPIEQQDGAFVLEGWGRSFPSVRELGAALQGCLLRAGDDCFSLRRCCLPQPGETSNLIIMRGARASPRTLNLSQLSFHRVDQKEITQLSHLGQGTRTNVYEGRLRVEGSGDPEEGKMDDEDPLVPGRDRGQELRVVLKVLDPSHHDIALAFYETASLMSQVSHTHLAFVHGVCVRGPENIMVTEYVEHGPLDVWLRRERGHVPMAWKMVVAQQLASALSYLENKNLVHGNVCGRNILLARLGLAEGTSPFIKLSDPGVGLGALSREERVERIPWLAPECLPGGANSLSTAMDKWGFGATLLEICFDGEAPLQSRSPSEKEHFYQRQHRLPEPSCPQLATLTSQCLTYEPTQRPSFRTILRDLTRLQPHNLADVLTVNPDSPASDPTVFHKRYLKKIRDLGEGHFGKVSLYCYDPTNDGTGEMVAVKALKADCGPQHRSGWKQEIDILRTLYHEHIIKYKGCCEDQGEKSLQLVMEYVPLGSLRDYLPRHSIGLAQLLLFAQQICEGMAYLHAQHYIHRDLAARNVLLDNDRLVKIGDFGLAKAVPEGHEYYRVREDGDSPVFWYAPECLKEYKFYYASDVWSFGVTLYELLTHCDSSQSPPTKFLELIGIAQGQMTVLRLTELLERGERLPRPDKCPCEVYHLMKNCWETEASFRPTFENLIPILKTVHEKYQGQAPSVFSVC
T1 sequence (Q96SW2 whole entry, looked up, the tested form may be a part): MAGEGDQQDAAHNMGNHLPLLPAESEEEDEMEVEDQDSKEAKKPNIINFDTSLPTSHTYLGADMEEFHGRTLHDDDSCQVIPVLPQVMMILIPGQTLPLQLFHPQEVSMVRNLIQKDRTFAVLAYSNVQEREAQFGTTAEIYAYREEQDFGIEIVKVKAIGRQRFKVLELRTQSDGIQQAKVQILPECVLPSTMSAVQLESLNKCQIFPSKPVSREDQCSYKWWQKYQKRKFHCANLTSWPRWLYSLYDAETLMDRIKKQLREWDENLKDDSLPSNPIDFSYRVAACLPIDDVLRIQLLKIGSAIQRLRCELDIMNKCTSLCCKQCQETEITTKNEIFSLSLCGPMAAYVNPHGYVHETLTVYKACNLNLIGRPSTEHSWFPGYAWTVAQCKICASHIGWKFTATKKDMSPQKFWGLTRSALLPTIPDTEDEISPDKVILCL

[3] = biological target: Tyrosine-protein kinase JAK1 (Homo sapiens, UniProt P23458); assay: Displacement of fluorophore-labeled probe from JAK1 JH2 domain (unknown origin) by HTRF assay
Tyrosine-protein kinase JAK1, sequence (P23458 whole entry, the tested form may be a part): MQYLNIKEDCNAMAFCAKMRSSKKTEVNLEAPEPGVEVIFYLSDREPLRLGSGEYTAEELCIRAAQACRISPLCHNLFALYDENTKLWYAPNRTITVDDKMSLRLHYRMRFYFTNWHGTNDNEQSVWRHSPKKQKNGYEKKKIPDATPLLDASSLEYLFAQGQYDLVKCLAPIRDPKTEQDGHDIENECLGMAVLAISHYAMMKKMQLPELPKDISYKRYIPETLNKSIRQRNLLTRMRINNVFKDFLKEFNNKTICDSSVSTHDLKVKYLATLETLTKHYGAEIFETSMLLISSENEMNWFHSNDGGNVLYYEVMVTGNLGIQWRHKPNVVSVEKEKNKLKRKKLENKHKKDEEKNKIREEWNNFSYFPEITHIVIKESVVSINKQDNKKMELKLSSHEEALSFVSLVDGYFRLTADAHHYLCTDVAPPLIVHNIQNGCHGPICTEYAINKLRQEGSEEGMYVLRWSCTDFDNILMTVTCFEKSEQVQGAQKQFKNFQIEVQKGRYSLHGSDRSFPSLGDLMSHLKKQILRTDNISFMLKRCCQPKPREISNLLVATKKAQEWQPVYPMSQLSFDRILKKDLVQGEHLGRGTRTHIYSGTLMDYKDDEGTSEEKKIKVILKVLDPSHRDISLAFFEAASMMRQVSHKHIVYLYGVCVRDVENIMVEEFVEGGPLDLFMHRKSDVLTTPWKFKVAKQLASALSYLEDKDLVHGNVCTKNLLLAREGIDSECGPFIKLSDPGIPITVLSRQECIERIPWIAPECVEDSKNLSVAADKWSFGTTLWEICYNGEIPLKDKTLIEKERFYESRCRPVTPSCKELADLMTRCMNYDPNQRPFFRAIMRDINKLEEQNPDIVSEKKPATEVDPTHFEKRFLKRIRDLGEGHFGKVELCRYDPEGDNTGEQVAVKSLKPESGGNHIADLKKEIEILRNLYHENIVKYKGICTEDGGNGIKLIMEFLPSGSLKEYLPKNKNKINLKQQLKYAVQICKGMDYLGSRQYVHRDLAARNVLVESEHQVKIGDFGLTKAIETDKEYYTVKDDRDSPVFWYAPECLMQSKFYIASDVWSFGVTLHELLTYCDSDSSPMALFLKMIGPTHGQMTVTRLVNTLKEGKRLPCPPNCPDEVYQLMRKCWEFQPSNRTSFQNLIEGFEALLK

[4] = Metabolic stability in mouse liver microsomes assessed as half life measured up to 120 mins by LC-MS/MS analysis; format: ADME, Microsome
Mus musculus [5] = assay: Anti-inflammatory activity in imiquimod-induced female BALB/c mouse psoriasis model assessed as reduction in concomitant splenomegaly at 5 mg/kg, ip administered daily topically for 6 days; format: functional, organism-based; details: time 6.0 day
[6] = biological target: T1, Protein cereblon/Non-receptor tyrosine-protein kinase TYK2; assay: PROTAC activity at CRBN/TYK2 in human Jurkat cells assessed as induction of degradation of TYK2 at 1 nM measured after 10 hrs by Western blot analysis relative to control; format: cell-based
Mus musculus [7] = species: Mus musculus; assay: Anti-inflammatory activity in imiquimod-induced female BALB/c mouse psoriasis model assessed as reduction in INF-alpha expression in skin by ELISA method; format: functional, organism-based

Non-receptor tyrosine-protein kinase TYK2, sequence (P29597 whole entry, the tested form may be a part): as the sequence (P29597 whole entry, looked up, the tested form may be a part) above

IC50 [1]: 1.2 nM
Activity [2]: Active
IC50 [3]: > 100 nM
half-life [4]: 101 min
Activity [6]: 63%
Structure (SMILES): CNC(=O)c1cnc(Nc2ccc(C(=O)NC3CCC(Nc4ccc5c(c4)C(=O)N(C4CCC(=O)NC4=O)C5=O)CC3)cn2)cc1Nc1cccc(-c2ncc(F)cn2)c1OC (configuration not stated)
Activity (Mus musculus [5]): Active
Activity (Mus musculus [7]): Active
